The values below come from patent US20050272036A1, “Ketones” (priority 2002, published 2005).

Tested on in one data set: not given
Assay: not given
Conditions: not given
The melting point is the temperature, or range, at which the solid turns liquid. The molecule `COc1ccc(C(=O)Cc2ccccc2)cc1` [Reference Example 5, (4-Methoxyphenyl)-(benzyl)-ketone] showed a melting point of 68 to 69 °C.

As to `O=C(CCc1ccc(F)cc1)c1ccc(C(F)(F)F)cc1` [Example 19, (4-Fluorophenethyl)-(4-trifluoromethylphenyl)-ketone], the melting point is 66 to 67 °C.

As for `O=C(Cc1ccc(Cl)cc1)c1ccc(Br)cc1` [Reference Example 3, (4-Bromophenyl)-(4-chlorobenzyl)-ketone], the melting point was 128 to 129 °C.

`O=C(Cc1ccc(Br)cc1)c1ccc(Cl)cc1` [RE 3, (4-Bromobenzyl)-(4-chlorophenyl)-ketone] showed a melting point of 125 to 126 °C.

In turn, `Cc1ccc(C(=O)Cc2ccccc2)cc1` [Reference Example 11, (Benzyl)-(4-methylphenyl)-ketone] displayed a melting point of 107 to 111 °C.

As for `Cc1ccc(CC(C(=O)c2ccccc2)N2CCCCC2)cc1` (centres unmarked), the melting point was in the range of 71 to 72 °C.

For `O=C(Cc1ccc(Cl)c(Cl)c1)c1ccc(Cl)cc1` [Example 4, (4-Chlorophenyl)-(3,4-dichlorophenylmethyl)-ketone], the melting point was 99 to 103 °C.

As to `O=C(c1ccccc1)C(Cc1ccc(Cl)cc1)c1cccnn1` (centres unmarked) [Example 13, [2-(4-Chlorophenyl)-1-(pyridazin-3yl)ethyl]-(phenyl)-ketone], the melting point fell in the range of 140 to 142 °C.

`O=C(CS(=O)(=O)c1ccccc1)c1ccccn1` [Example 100, (Phenylsulphonylmethyl)-(pyrid-2-yl)-ketone] displayed a melting point of 101 to 103 °C.

The molecule `O=C(c1cccnc1)C(Cc1ccc(F)cc1)c1ccccc1` (stereo not drawn) [Example 10, [α-(4-Fluorobenzyl)benzyl]-(pyrid-3-yl)-ketone] returned a melting point of 100 to 102 °C.

In turn, `Cc1ccc(C(=O)CCc2ccc(N3CCN(c4ccncc4)CC3)cc2)cc1` [Reference Example 55, {4-[1-(Pyrid-4-yl)piperazin-4-yl]phenethyl}-(4-methylphenyl)-ketone] had a melting point of 114 to 115 °C.

Molecule `O=C(c1ccc(Cl)cc1)C(Cn1cncn1)c1ccc(Cl)cc1` (stereo not drawn) [Reference Example 16, (4-Chlorophenyl)-[α-(1,2,4-triazol-1-ylmethyl)-4-chlorobenzyl]-ketone] returned a melting point of 126 to 128 °C.

Take `O=C(Cn1cnc2ccccc21)c1ccc(Cl)cc1Cl` [Example 7, (Benzimidazol-1-ylmethyl)-(2,4-dichlorophenyl)-ketone]: the melting point fell in the range of 130 to 132 °C.

For another data set, the target named is T1, human 11βHSD1 enzyme (Homo sapiens, UniProt P28845).
T1 construct: a construct containing full-length human 11βHSD1 enzyme (in pCMVHyg); expressed in transfected cells
T1 sequence (P28845 whole entry): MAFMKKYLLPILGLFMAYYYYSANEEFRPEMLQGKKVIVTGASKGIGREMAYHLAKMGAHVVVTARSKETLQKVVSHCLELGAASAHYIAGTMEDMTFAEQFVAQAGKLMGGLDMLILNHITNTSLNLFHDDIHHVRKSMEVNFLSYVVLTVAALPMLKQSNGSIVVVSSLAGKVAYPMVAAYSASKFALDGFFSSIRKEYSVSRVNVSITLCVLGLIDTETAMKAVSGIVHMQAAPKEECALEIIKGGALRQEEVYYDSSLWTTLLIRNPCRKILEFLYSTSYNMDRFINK
The data set is described as follows: HeLa GRE4-βGal/11βHSD1 cell reporter assay (cortisone to cortisol, β-galactosidase readout). The format is cell-based. As to conditions: HeLa GRE4-βGal/11βHSD1 cells, cortisone 1 μM, overnight incubation, absorbance at 570 nm. The source says: HeLa cells (human cervical carcinoma derived cells) were stably transfected with a construct containing four copies of the glucocorticoid response element (GRE) linked to a beta-galactosidase reporter gene (3 kb lac Z gene derived from pSV-B-galactosidase). These cells were then further stably transfected with a construct containing full-length human 11βHSD1 enzyme (in pCMVHyg) to create GRE4-βGal/11βHSD1 cells. The principal of the assay is as follows. Cortisone is freely taken up by the cells and is converted to cortisol by 11βHSD1 oxo-reductase activity and cortisol (but not cortisone) binds to and activates the glucocorticoid receptor. Activated glucocorticoid receptor then binds to the GRE and initiates transcription and translation of β-galactosidase. Enzyme activity can then be assayed with high sensitivity by colourimetric assay.
Cells were routinely cultured in DMEM (Invitrogen, Paisley, Renfrewshire, UK) containing 10% foetal calf serum (LabTech), 1% glutamine (Invitrogen), 1% penicillin & streptomycin (Invitrogen), 0.5 mg/ml G418 (Invitrogen) & 0.5 mg/ml hygromycin (Boehringer). Assay media was phenol red free-DMEM containing 1% glutamine, 1% penicillin & streptomycin.
Compounds (1 mM) to be tested were dissolved in dimethyl sulphoxide (DMSO) and serially diluted into assay media containing […]. […]
A cocktail (25 μl) consisting of 10× Z-buffer (600 mM Na2HPO4, 400 mM NaH2PO4.2H2O, 100 mM KCl, 10 MM MgSO4.7H2O, 500 mM β-mercaptoethanol, pH 7.0), SDS (0.2%), chlorophenol red-β-D-galactopyranoside (5 mM, Roche Diagnostics) was added per well and plates incubated at 37° C. for 3-4 hours. β-Galactosidase activity was indicated by a yellow to red colour change (absorbance at 570 nm) measured using a Tecan Spectrafluor Ultra.
The calculation of median inhibitory concentration (IC50) values for the inhibitors was performed using Origin 6.0 (Microcal Software, Northampton Mass. USA). Dose response curves for each inhibitor were plotted as OD units at each inhibitor concentration with relation to a maximum signal (cortisone, no compound) and IC50 values calculated. […]
Usually IC50 stands for the point on the concentration scale where inhibition reaches its midpoint. A lower IC50 goes with greater potency in that assay. With `CC(=O)Nc1ccc(OCC(=O)c2ccc(Cl)cc2)cc1` [Example 155, (4-Chlorophenyl)-(4-acetylaminophenoxymethyl)-ketone], the half-maximal inhibitory concentration (IC50) was determined as 153 nM.

Turning to `Cc1ccc(C(=O)Cc2ccsc2)cc1` [Example 3, (Thien-3-ylmethyl)-(4-methylphenyl)-ketone], the concentration for half-maximal inhibition (IC50) came out at 76.8 nM.

As for `O=C(CS(=O)(=O)N1CCCC1)c1ccc(F)cc1` [Example 79, (4-Fluorophenyl)-(pyrrolidin-1-ylsulphonylmethyl)-ketone], half-maximal inhibition (IC50) was put at 93.5 nM.

In the next data set the test system is Pancreatic islets.
Assay: not given
As to conditions: pancreatic islets (Davani B et al. 2000); cited from earlier work.
Consider `CC1(C)[C@@H](OC(=O)CCC(=O)O)CC[C@]2(C)[C@H]3C(=O)C=C4[C@@H]5C[C@@](C)(C(=O)O)CC[C@]5(C)CC[C@@]4(C)[C@]3(C)CC[C@@H]12` [carbenoxolone], for which the “effects of 11-dehydocorticosterone on insulin release” value was “can inhibit the effects of 11-dehydocorticosterone on insulin release”.
